In data set [1] the test system is Yersinia enterocolitica IID981. In words: In vitro antibacterial activity (MIC, agar dilution). Type of data set: cell-based. The following applies: inoculum 10^8 cells/ml. On the procedure: (§1) The minimum inhibitory concentration (MIC) of the compound (I) was determined by an agar dilution technique (the standard method of Japan Society of Chemotherapy) against standard strains of gram-positive and gram-negative bacteria.
(§2) Inoculum size: 10^8 cells/ml
(In general: In agar dilution, organisms are placed on agar that contains the substance at set levels.)

Data set [2] deals with Citrobacter freundii IID976. The description is as above. Type of data set: cell-based. Conditions: inoculum 10^8 cells/ml. How it is done:
as §1, §2

Data set [3] concerns S. pneumoniae IID552. The description is as above. Type of data set: cell-based. Conditions: Streptococcus pneumoniae; S. pneumoniae IID552; inoculum 10^8 cells/ml; read-out: MIC. How it is done: as §1, §2
Data set [4] has as its system Proteus vulgaris IFO3167. The description is as above. Type of data set: cell-based. Conditions: Proteus vulgaris IFO3167; inoculum 10^8 cells/ml; read-out: MIC. On the procedure: as §1, §2
Data set [5] relates to Salmonella enteritidis IID604. The description is as above. In kind it is cell-based. Conditions: Salmonella enterica; Salmonella enteritidis IID604; inoculum 10^8 cells/ml; read-out: MIC. On the procedure:
as §1, §2

The test system of data set [6] is Staphylococcus aureus 209P. The description is as above. In kind it is cell-based. Conditions: Staphylococcus aureus 209P; inoculum 10^8 cells/ml; read-out: MIC. On the procedure:
as §1, §2

Data set [7] deals with P. mirabilis IID994. The description is as above. Conditions: Proteus mirabilis, inoculum 10^8 cells/ml. Type of data set: cell-based. On the procedure: as §1, §2
In data set [8] the test system is S. epidermidis IID866. Described as above. In kind it is cell-based. Conditions: Staphylococcus epidermidis, inoculum 10^8 cells/ml. On the procedure: as §1, §2
Data set [9] has as its system Enterobacter cloacae IID977. The description is as above. In kind it is cell-based. Conditions: inoculum 10^8 cells/ml. How it is done: as §1, §2
Data set [10] deals with Shigella sonnei IID969. Described as above. Type of data set: cell-based. The following applies: inoculum 10^8 cells/ml. On the procedure: as §1, §2
For data set [11], the system named is P. morganii IID602. The data set is described as above. In kind it is cell-based. The following applies: Morganella morganii, inoculum 10^8 cells/ml. How it is done:
as §1, §2

Data set [12] relates to S. aureus IID670 (Terajima). The description is as above. In kind it is cell-based. The following applies: Staphylococcus aureus; S. aureus IID670 (Terajima); inoculum 10^8 cells/ml; read-out: MIC. On the procedure:
as §1, §2

The test system of data set [13] is E. coli NIHJ JC-2. Described as above. Type of data set: cell-based. Conditions: Escherichia coli, NIHJJC2; E. coli NIHJ JC-2; inoculum 10^8 cells/ml; read-out: MIC. On the procedure: as §1, §2
Data set [14] can be described thus: Metabolism when administered to animals. In kind it is in vivo.

≈ marks a conversion by molar mass, not a printed value.

The values below come from patent US4429127A, “Quinoline carboxylic acid derivative” (Kyorin Pharmaceutical Co., Ltd., priority 1981, dated 1984).

As a reminder, the MIC is the smallest concentration in the dilution series that meets the test's criterion for growth inhibition.

As for `CCn1cc(C(=O)O)c(=O)c2cc(F)c(N3CCN(Cc4ccc(N)cc4)CC3)c(F)c21` [compound (I), 7-[4-(p-aminobenzyl)-1-piperazinyl]-1-ethyl-6,8-difluoro-1,4-dihydro-4-oxoquinoline-3-carboxylic acid], the MIC in [1] came out at 1.56 µg/mL (≈ 3.53 µM); in data set [2] it was 1.56 µg/mL (≈ 3.53 µM); in data set [3] it was 0.39 µg/mL (≈ 0.881 µM); in [4] it was 1.56 µg/mL (≈ 3.53 µM); in [5], 1.56 µg/mL (≈ 3.53 µM); in [6] it was 0.1 µg/mL (≈ 0.226 µM). The MIC in data set [7] is 1.56 µg/mL (≈ 3.53 µM); in data set [8], 0.2 µg/mL (≈ 0.452 µM); in data set [9], 1.56 µg/mL (≈ 3.53 µM); in data set [10] it was 0.39 µg/mL (≈ 0.881 µM); in [11] it was 1.56 µg/mL (≈ 3.53 µM); in [12] it was 0.2 µg/mL (≈ 0.452 µM). In addition, the MIC in [13] was determined as 0.2 µg/mL (≈ 0.452 µM). Also, in data set [14], the “Metabolism, in words” value is “metabolized in part to 1-ethyl-6,8-difluoro-1,4-dihydro-4-oxo-7-(1-piperazinyl)quinoline-3-carboxylic acid”.
